± gives the expanded uncertainty stated by the source.
Key:
[1] = refractive index (Na D-line) (dimensionless); details: 101.33 kPa, Liquid
[2] = Liquid; for mass density: 101.33 kPa

| SMILES | refractive index ([1]; 293.15 K) | mass density ([2]; 293.15 K) [kg/m3] | also measured |
| --- | --- | --- | --- |
| ClC(Cl)C(Cl)Cl [1,1,2,2-tetrachloroethane] | 1.494 ± 0.005 | 1593 ± 3.6 | vapor or sublimation pressure ([2]; 417.15 K): 95.23 ± 5 kPa |
| ClCCCl [1,2-dichloroethane] | 1.4196 ± 0.005 | 1252.9 ± 2.7 | vapor or sublimation pressure ([2]; 355.05 K): 95.23 ± 5 kPa |
| Cc1ccccc1C [1,2-dimethylbenzene] | – | 880.1 ± 1.9 | vapor or sublimation pressure ([2]; 415.35 K): 95.23 ± 5 kPa |
| Cc1cccc(C)c1 [1,3-dimethylbenzene] | 1.4972 ± 0.005 | 864.4 ± 1.7 | vapor or sublimation pressure ([2]; 410.15 K): 95.23 ± 5 kPa |
| Cc1ccc(C)cc1 [1,4-dimethylbenzene] | 1.4858 ± 0.005 | 861 ± 1.7 | vapor or sublimation pressure ([2]; 409.15 K): 95.23 ± 5 kPa |
| Cc1ccc(O)cc1 [4-methylphenol] | – | – | refractive index ([1]; 298.15 K): 1.5391 ± 0.005; vapor or sublimation pressure ([2]; 472.85 K): 95.23 ± 5 kPa |
| ClC(Cl)=C(Cl)Cl [tetrachloroethene] | 1.505 ± 0.005 | 1625 ± 3.7 | vapor or sublimation pressure ([2]; 392.05 K): 95.23 ± 5 kPa |
| ClC=C(Cl)Cl [trichloroethene] | – | – | refractive index ([1]; 298.15 K): 1.4782 ± 0.005; mass density ([2]; 298.15 K): 1464 ± 3.3 kg/m3; vapor or sublimation pressure ([2]; 358.35 K): 95.23 ± 5 kPa |

From the NIST ThermoML archive (doi:10.1016/j.jct.2006.12.017)
